The record followed here is US20090170847A1, “Imidazopyridine Derivatives Inhibiting Protein Kinase Activity, Method for the Preparation Thereof and Pharmaceutical Composition Containing Same” (priority 2006, published 2009).

Common to all, as to type: biochemical
For one test, the target named is T1, CDK-2/cycline A (Homo sapiens, UniProt P24941).
T1 construct: purchased Upstate
Put plainly: CDK-2 enzyme inhibition (histone H1, 32P-ATP). As for the experimental part: (§1) 0.33 mg/ml of MBP (Upstate), 100 μM of ATP and 0.25 μCi of ^32P-ATP were added to the buffer solution as substrates. 5 nM of recombinant Erk-1 (Upstate) was added the resulting mixture, and the mixture was reacted at 30° C. for 1 hour. The reaction was terminated by adding 5 μl of 5% phosphoric acid solution to 25 μl of the reaction mixture. 15 μl of the resulting solution was dropped on whatman p81 filter paper, which was then washed in 0.5% phosphoric acid solution for 10 mins. After repeating the washing 3 times, the filter paper was dried and cpm thereof was measured by a liquid scintillation counter (Packard, USA). Inhibitory capacities of the test compounds for the enzyme activity were assessed according to the same method as in GSK-3β analysis, and IC50 value was calculated.
The procedure of ERK-1 analysis was repeated to assess inhibitory capacities of the test compounds for the enzyme activity, except for using 2.5 μg of histone H1 (Upstate) and 100 nM of recombinant CDK-2/cycline A (Upstate).

A further test concerns the target T2, KDR (Homo sapiens, UniProt P35968).
T2 construct: purchased Upstate
Put plainly: KDR enzyme inhibition (Biotin-polyE4Y, alphascreen). As to conditions: 0.1 μM ATP. As for the experimental part: (§2) The test solution prepared above by dissolving a test compound in DMSO was added to the reaction solution in an amount of less than 5% based on the total reaction solution to analyze the capacity for enzyme inhibitory activity. The cpm value obtained when the test compounds was present relative to the cpm value in the absence of the test compound was represented by percentage, and IC50 (μM) was determined as the concentration of the test compound required to inhibit the enzyme activity by 50% relatively to the control solution.
The compounds prepared in the Examples were dissolved in dimethylsulfoxide (DMSO) at a concentration of 12.5 mM to prepare test solution, and enzyme reaction was conducted in a buffer solution containing 50 mM tris-HCl (pH 7.5), 5 mM MgCl2, 1 mM MnCl2, 0.01% tween-20 and 2 mM of DTT. 1 nM of Biotin-polyE4Y (Packard) and 0.1 μM of ATP were added to the buffer solution as substrates. 2 nM of recombinant KDR (Upstate) was added the resulting mixture and reaction was carried out at 30° C. for 1 hour. 10 μl of a diluted solution prepared by diluting alphascreen phosphotyrosine (T-Tyr-100, Packard) beads with a solution containing 6.25 mM of HEPES (pH 7.4), 250 mM of NaCl, 100 Mm EDTA, and 0.25% BSA was added to 15 μl of the KDR reaction solution. After a reaction at a room temperature for 1 hour, alphascreen signal was measured by a fusion a-FP (Packard). Inhibitory capacities of the test compounds for the enzyme activity were assessed according to the same method as in GSK-3β analysis, and IC50 value was calculated.

Another test deals with T3, ERK-1 (Homo sapiens, UniProt P27361).
T3 construct: purchased Upstate
Put plainly: ERK-1 enzyme inhibition (MBP, 32P-ATP). The note with it: ERK-1, 100 μM ATP. How it is done:
as §2
as §1, with “The compounds prepared in the Examples were dissolved in dimethylsulfoxide (DMSO) at a concentration of 12.5 mM to prepare test compounds and enzyme reaction was conducted in a buffer solution containing 50 mM of tris-HCl (pH 7.5), 10 mM of MgCl2, 1 mM of EGTA, 1 mM of EDTA and 1 mM of DTT. 0.33” for “0.33”

For the next test, the target named is human GSK-3β (Homo sapiens, UniProt P49841). Put plainly: GSK-3β enzyme inhibition (32P-ATP, phospho-CREB peptide, filter paper). As to conditions: 100 μM ATP, 30° C., 1 hour. How it is done: GSK-3β was prepared by a gene recombination method.
First, primers corresponding to 5′-end and 3′-end of polynucleotide encoding human GSK-3β were designed and synthesized from nucleotide sequence of human GSK-3β (GenBank Reg. No. L33801). Then, the primers were amplified by PCR (polymerase chain reaction) in which a human DNA sequence was employed as a template and treated with restriction enzyme BamH1/XhoI. The resulting gene fragments were inserted into the corresponding identical restriction sites of pGex vector (GE Healthcare Life Science) to prepare an expression vector for transformation of E. coli BL21 (DE3) strain (Invitrogen). The transformed E. coli strain was inoculated to LB medium (1% Bacto tryptone, 0.5% yeast extract, 1% sodium chloride) and cultured until the optical density of the bacterial cells was about 0.5 at 600 nm and 37° C. Then, IPTG (isopropyl-β-D-thiogalactoside) was added thereto to a final concentration to 0.5 mM at 18° C. 16 hours after IPTG addition, the cells were subjected to centrifugation at 10,000×g for 10 mins and cell precipitates were collected. The cell precipitates were suspended in a buffer solution (30 mM tris-HCl (pH 7.5), 100 mM NaCl, 5% glycerol, 2 mM DTT) and the cells were smashed in an ice bath using a Sonic Dismembrator (Fisher, USA). The resulting solution was centrifuged at 16,000 rpm for 30 mins.
The supernatant obtained above was introduced to a pre-equilibrated GST column (Pharmacia, USA) and eluted by 5 mM glutachione. The effuent was subjected to SDS-PAGE and GSK-3β protein was collected. GST protein was cutt using thrombin. The GSK-3β protein thus obtained was diluted with a buffer solution (20 mM HEPES (pH 7.5), 5% glycerol, 2 mM DTT) until the concentration of NaCl reached 50 mM. The diluted solution was introduced to Mono S column (Pharmacia, USA) equilibrated with the above buffer solution and eluted with a aqueous NaCl while changing the concentration from 0 to 1 M NaCl, and GSK-3β protein was collected by a electrophoresis. The purified protein was used in the analysis for the activity for enzyme activity.
The enzyme reaction was conducted in a buffer solution (50 mM of tris-HCl (pH 7.5), 10 mM of MgCl2, 1 mM of EGTA, 1 mM of EDTA and 1 mM of DTT). 100 μM of phosho-CREB peptide (NEB, USA), 100 μM of ATP and 1 μCi of ^32P-ATP were added to the buffer solution as substrates. And then 100 nM of recombinant GSK-3β was added thereto and the mixture was reacted at 30° C. for 1 hour. The reaction was terminated by the addition of 5 μl of 5% phosphoric acid solution to 25 μl of the reaction mixture. The resulting solution was subjected to centrifugation at 15,000 for 10 mins and 20 μl of the supernatant thus obtained was dropped on whatman p81 filter paper. The filter paper was washed in 0.5% phosphoric acid solution for 10 mins. After repeating the washing 3 times, the filter paper was dried and its cpm (counter per mins) was assessed.
The test solution prepared above by dissolving a test compound in DMSO was added to the reaction solution in an amount of less than 5% based on the total reaction solution to analyze the capacity for enzyme inhibitory activity.

In another test the target is T4, JNK-1 (Homo sapiens, UniProt P45983).
T4 construct: purchased Upstate
Put plainly: JNK-1 enzyme inhibition (GST-ATF2, 32P-ATP).

The target of test [1] is T5, p38 Mitogen-activated protein kinase (MAPK) (Homo sapiens, UniProt Q16539).
T5 construct: purchased Upstate
Briefly: p38 MAPK enzyme inhibition (histone H1, 32P-ATP). As to conditions: p38 MAPK (recombinant p38a).
Method: The procedure of ERK-1 analysis was repeated to assess inhibitory capacities of the test compounds for the enzyme activity, except for using 2.5 μg of histone H1 (Upstate) and 5 nM of recombinant p38a (Upstate).

T4 sequence (P45983 whole entry, species assumed): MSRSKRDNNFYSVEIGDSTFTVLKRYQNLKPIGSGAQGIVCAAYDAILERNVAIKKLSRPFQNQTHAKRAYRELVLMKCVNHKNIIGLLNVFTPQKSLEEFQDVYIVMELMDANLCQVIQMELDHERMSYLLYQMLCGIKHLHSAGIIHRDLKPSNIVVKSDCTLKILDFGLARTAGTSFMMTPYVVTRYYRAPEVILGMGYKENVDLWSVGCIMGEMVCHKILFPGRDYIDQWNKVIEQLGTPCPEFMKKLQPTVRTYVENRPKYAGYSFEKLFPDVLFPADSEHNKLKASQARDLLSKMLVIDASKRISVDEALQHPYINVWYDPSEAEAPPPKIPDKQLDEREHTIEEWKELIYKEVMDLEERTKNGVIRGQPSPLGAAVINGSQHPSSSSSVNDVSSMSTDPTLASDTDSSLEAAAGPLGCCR
T2 sequence (P35968 20-1356, species assumed): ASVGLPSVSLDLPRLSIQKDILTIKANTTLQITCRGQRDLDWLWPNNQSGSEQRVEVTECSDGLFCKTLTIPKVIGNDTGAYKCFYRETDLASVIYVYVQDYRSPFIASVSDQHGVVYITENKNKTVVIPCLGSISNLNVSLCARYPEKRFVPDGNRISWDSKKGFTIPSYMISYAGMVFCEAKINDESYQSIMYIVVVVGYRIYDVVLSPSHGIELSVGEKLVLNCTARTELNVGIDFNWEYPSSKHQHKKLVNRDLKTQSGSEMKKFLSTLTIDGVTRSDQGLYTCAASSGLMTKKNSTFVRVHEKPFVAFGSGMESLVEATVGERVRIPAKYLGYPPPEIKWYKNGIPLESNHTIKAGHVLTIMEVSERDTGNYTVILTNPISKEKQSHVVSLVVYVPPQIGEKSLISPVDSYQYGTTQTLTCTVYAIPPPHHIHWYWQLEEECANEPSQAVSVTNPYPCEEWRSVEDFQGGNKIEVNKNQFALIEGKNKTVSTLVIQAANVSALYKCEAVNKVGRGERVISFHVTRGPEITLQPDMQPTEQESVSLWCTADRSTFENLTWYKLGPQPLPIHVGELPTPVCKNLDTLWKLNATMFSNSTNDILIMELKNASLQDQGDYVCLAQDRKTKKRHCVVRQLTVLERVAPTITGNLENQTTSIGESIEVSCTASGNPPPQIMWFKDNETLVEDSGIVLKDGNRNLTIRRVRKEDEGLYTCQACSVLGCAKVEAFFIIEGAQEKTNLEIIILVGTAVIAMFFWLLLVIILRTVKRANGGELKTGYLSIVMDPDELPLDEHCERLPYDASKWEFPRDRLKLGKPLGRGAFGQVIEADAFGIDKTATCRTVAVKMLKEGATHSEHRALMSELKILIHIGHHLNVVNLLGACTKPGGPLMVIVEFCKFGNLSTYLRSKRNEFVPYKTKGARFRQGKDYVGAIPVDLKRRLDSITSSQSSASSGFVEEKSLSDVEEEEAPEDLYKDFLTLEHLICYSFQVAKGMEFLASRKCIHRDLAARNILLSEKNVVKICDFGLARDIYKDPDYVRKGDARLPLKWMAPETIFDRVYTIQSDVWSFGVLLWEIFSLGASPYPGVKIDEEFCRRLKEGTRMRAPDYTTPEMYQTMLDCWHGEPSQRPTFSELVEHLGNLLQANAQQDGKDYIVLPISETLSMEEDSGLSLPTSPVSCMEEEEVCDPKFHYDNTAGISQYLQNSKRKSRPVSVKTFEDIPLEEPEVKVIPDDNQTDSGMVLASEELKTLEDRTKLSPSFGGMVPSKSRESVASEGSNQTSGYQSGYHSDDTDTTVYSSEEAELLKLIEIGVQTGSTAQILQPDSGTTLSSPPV
human GSK-3β, sequence (P49841 whole entry, the tested form may be a part): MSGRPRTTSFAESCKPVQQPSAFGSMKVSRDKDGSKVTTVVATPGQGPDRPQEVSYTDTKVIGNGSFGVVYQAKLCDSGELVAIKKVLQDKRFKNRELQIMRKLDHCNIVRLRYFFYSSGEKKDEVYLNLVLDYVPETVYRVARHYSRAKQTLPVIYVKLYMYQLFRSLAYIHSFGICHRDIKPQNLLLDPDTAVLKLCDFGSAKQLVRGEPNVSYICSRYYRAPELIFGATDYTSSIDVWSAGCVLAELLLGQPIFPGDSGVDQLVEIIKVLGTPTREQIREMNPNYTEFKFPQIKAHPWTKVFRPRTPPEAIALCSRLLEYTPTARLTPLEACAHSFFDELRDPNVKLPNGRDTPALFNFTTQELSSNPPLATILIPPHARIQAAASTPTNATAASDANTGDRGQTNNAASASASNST
T5 sequence (Q16539 whole entry): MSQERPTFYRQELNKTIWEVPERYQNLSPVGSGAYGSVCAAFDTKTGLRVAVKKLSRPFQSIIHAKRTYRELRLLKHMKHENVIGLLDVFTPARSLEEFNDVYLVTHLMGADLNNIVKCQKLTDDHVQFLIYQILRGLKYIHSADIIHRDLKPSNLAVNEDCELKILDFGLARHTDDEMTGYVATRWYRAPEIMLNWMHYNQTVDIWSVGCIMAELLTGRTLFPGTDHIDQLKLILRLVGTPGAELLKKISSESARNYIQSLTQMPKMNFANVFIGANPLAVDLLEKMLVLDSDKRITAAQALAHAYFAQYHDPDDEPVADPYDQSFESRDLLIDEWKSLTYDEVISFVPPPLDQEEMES
T3 sequence (P27361 whole entry, species assumed): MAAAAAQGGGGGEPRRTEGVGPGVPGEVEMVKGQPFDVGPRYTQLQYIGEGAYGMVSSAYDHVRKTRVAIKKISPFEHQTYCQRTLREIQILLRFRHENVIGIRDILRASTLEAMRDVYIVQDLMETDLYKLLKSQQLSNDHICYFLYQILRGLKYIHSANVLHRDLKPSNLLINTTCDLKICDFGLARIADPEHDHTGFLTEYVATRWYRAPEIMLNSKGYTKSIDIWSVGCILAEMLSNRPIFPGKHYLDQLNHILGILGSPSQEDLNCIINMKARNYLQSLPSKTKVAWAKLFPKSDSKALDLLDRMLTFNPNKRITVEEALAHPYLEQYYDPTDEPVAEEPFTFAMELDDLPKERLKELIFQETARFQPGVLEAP

What is called IC50 is the midpoint of a concentration-inhibition curve. `CCSc1ccncc1NC(=O)c1ccnc2[nH]c(-c3ccc(F)cc3)nc12` [Example 320, 2-(4-fluoro-phenyl)-3H-imidazo[4,5-b]pyridine-7-carboxylic acid(4-ethylsulfanyl-pyridin-3-yl)-amide]: the IC50 on CDK-2/cycline A is 170 nM; at KDR, 290 nM; against ERK-1 it was 25.5 µM; on human GSK-3β it was 5 nM; on JNK-1, 14.5 µM; in test [1] it was 50 µM.
